Measurements taken from patent US20230374015A1, “INHIBITORS OF FIBROBLAST GROWTH FACTOR RECEPTOR KINASES” (Kinnate Biopharma Inc., priority 2020, published 2023).
Counter-ions that a name gives are not always drawn.

Target: FGFR2 (Homo sapiens, UniProt P21802)
Test: FGFR2 Kinase Protocol - Condition 2 (Reaction Biology HotSpot radiometric kinase assay, no preincubation)
Format: biochemical
Conditions: poly[Glu:Tyr] (4:1) 0.2 mg/ml, ATP 100 microM, 2 hr room temperature
Procedure: Example 2: FGFR2 Kinase Protocol—Condition 2
The Reaction Biology HotSpot assay platform (http://www.reactionbiology.com) was used to measure kinase/inhibitor interactions as described previously (Anastassiadis et al., 2011). In brief, for each reaction, kinase and substrate were mixed in a buffer containing 20 mM HEPES (pH 7.5), 10 mM MgCl2, 1 mM EGTA, 0.02% Brij35, 0.02 mg/mL BSA, 0.1 mM Na3VO4, 2 mM DTT, and 1% DMSO. All compounds were in powder form and freshly solubilized in DMSO for assays. Compounds were then added to each reaction mixture via acoustic dispense using an ECHO 550 nanoliter dispenser. For Human FGFR2 wildtype testing, a peptide substrate, poly[Glu:Tyr] (4:1) was used to promote the reaction at a concentration of 0.2 mg/ml. For Human FGFR2 (V564F) testing, a peptide substrate, poly[Glu:Tyr] (4:1) was used to promote the reaction at a concentration of 0.2 mg/ml. ATP concentration for all assays was maintained at 100 micromolar. Compounds were tested in 10-dose IC50 mode with a 3-fold serial dilution. Compounds were added to plates and ATP was added directly to the wells. ATP (Sigma-Aldrich, St. Louis, MO 63178) and [g33P] ATP (specific activity 10 microCi/microliter) purchased at PerkinElmer (Boston, MA, 02118 Cat #BLU 003H250UC) were added at a final total concentration of 100 microM to each well with no preincubation. Reactions were carried out at room temperature for 2 hr and spotted onto P81 ion exchange cellulose chromatography paper (Reaction Biology). Filter paper was washed in 0.75% phosphoric acid to remove unincorporated ATP. The percent remaining kinase activity relative to a vehicle-containing (DMSO) kinase reaction was calculated for each kinase/inhibitor pair. IC50 values were calculated using Dotmatics Knowledge Solutions Studies curve fitting (Dotmatics, Bishops Stortford, UK, CM23).

Sequence of FGFR2 (P21802 22-821): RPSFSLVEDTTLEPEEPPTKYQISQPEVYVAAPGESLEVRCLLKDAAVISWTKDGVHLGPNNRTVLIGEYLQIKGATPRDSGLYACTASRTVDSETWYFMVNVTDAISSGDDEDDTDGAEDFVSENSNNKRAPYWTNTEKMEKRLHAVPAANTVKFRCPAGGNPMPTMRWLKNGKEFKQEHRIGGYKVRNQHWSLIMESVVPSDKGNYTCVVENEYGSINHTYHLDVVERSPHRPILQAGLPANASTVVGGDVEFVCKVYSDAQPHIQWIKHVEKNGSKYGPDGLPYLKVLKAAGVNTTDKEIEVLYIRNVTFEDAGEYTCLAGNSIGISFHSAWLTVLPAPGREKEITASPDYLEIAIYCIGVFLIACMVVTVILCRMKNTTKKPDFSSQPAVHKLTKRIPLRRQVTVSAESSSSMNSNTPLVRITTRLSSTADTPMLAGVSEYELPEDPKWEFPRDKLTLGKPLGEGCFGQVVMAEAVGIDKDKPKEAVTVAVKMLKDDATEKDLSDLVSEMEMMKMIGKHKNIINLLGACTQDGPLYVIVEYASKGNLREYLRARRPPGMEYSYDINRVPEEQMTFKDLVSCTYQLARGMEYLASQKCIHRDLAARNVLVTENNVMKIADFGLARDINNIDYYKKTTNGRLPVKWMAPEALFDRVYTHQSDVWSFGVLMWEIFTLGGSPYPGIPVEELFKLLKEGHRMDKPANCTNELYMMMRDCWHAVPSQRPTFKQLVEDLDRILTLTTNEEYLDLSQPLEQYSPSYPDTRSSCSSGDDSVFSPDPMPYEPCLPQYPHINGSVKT

`C=CC(=O)N1C[C@@H](n2nc(C#Cc3cc4ncn(C5CC5)c4cc3F)c3c(N)ncnc32)C[C@@H]1COC(F)F` [Example 196, 1-((2R,4S)-4-(4-Amino-3-((1-cyclopropyl-6-fluoro-1H-benzo[d]imidazol-5-yl)ethynyl)-1H-pyrazolo[3,4-d]pyrimidin-1-yl)-2-((difluoromethoxy)methyl)pyrrolidin-1-yl)prop-2-en-1-one] and `C=CC(=O)N1C[C@@H](n2nc(C#Cc3cc4ncn(C5CC5)c4cc3F)c3c(N)ncnc32)C[C@@H]1COC(F)(F)F` [Example 78, 1-((2R,4S)-4-(4-Amino-3-((1-cyclopropyl-6-fluoro-1H-benzo[d]imidazol-5-yl)ethynyl)-1H-pyrazolo[3,4-d]pyrimidin-1-yl)-2-((trifluoromethoxy)methyl)pyrrolidin-1-yl)prop-2-en-1-one] cannot be ordered by IC50: at most 0.1 µM for the first, at most 0.1 µM for the second.

`C=CC(=O)N1C[C@@H](n2nc(C#Cc3ccc4c(c3)ncn4C)c3c(N)nccc32)C[C@@H]1COC(F)(F)F` [Example 58, 1-((2R,4S)-4-(4-Amino-3-((1-methyl-1H-benzo[d]imidazol-5-yl)ethynyl)-1H-pyrazolo[4,3-c]pyridin-1-yl)-2-((trifluoromethoxy)methyl)pyrrolidin-1-yl)prop-2-en-1-one formate] and `C=CC(=O)N1C[C@@H](n2nc(C#Cc3cc4ncn(C)c4cc3F)c3c(N)nccc32)C[C@@H]1COC(F)(F)F` [Example 59, 1-((2R,4S)-4-(4-amino-3-((6-fluoro-1-methyl-1H-benzo[d]imidazol-5-yl)ethynyl)-1H-pyrazolo[4,3-c]pyridin-1-yl)-2-((trifluoromethoxy)methyl)pyrrolidin-1-yl)prop-2-en-1-one formate] cannot be ordered by IC50: at most 0.1 µM for the first, at most 0.1 µM for the second.

`C=CC(=O)N1C[C@@H](n2nc(C#Cc3ccc4c(cnn4C)c3)c3c(N)ncnc32)C[C@@H]1COC` [Example 40, 1-((2R,4S)-4-(4-amino-3-((1-methyl-1H-indazol-5-yl)ethynyl)-1H-pyrazolo[3,4-d]pyrimidin-1-yl)-2-(methoxymethyl)pyrrolidin-1-yl)prop-2-en-1-one] and `C=CC(=O)N1C[C@@H](n2nc(C#Cc3ccn4ncnc4c3)c3c(N)ncnc32)C[C@@H]1COC` [Example 114, 1-[(2R,4S)-4-[4-Amino-3-(2-[[1,2,4]triazolo[1,5-a]pyridin-7-yl]ethynyl)pyrazolo[3,4-d]pyrimidin-1-yl]-2-(methoxymethyl)pyrrolidin-1-yl]prop-2-en-1-one] cannot be ordered by IC50: at most 0.1 µM for the first, 0.1 to 1 µM for the second.

`C=CC(=O)N1C[C@@H](n2cc(C#Cc3c(F)cc4c(ncn4C4CC4)c3F)c3c(N)ncnc32)C[C@@H]1COC` [Example 75, 1-[(2R,4S)-4-[4-Amino-5-[2-(1-cyclopropyl-4,6-difluoro-1,3-benzodiazol-5-yl)ethynyl]pyrrolo[2,3-d]pyrimidin-7-yl]-2-(methoxymethyl)pyrrolidin-1-yl]prop-2-en-1-one] and `C=CC(=O)N1C[C@@H](n2cc(C#Cc3c(F)cc4c(ncn4C)c3F)c3c(N)ncnc32)C[C@@H]1COC` [Example 61, 1-[(2R,4S)-4-[4-Amino-5-[2-(4,6-difluoro-1-methyl-1,3-benzodiazol-5-yl)ethynyl]pyrrolo[2,3-d]pyrimidin-7-yl]-2-(methoxymethyl)pyrrolidin-1-yl]prop-2-en-1-one] cannot be ordered by IC50: at most 0.1 µM for the first, at most 0.1 µM for the second.

`C=CC(=O)N1C[C@@H](n2nc(C#Cc3cc4ncn(C)c4cc3Cl)c3c(N)ncnc32)C[C@@H]1C(F)F` [Example 179, 1-((2R,4S)-4-(4-amino-3-((6-chloro-1-methyl-1H-benzo[d]imidazol-5-yl)ethynyl)-1H-pyrazolo[3,4-d]pyrimidin-1-yl)-2-(difluoromethyl)pyrrolidin-1-yl)prop-2-en-1-one] and `C=CC(=O)N1C[C@@H](n2nc(C#Cc3cc4ncn(CC)c4cc3Cl)c3c(N)ncnc32)C[C@@H]1C` [Example 168, 1-((2S,4S)-4-(4-amino-3-((1-ethyl-6-chloro-1H-benzo[d]imidazol-5-yl)ethynyl)-1H-pyrazolo[3,4-d]pyrimidin-1-yl)-2-methylpyrrolidin-1-yl)prop-2-en-1-one] cannot be ordered by IC50: at most 0.1 µM for the first, at most 0.1 µM for the second.

First: C=CC(=O)N1C[C@@H](n2nc(C#Cc3ccc4nn(CC)cc4c3)c3c(N)nccc32)C[C@@H]1COC [Example 38, 1-[(2R,4S)-4-[4-amino-3-[2-(2-ethylindazol-5-yl)ethynyl]pyrazolo[4,3-c]pyridin-1-yl]-2-(methoxymethyl)pyrrolidin-1-yl]prop-2-en-1-one]
Second: C=CC(=O)N1C[C@@H](n2nc(C#Cc3c(F)cc4nn(CC)cc4c3F)c3c(N)nccc32)C[C@@H]1COC [Example 51, 1-((2R,4S)-4-(4-amino-3-((2-ethyl-4,6-difluoro-2H-indazol-5-yl)ethynyl)-1H-pyrazolo[4,3-c]pyridin-1-yl)-2-(methoxymethyl)pyrrolidin-1-yl)prop-2-en-1-one]
The IC50 of the first is higher: 1 to 10 µM for the first, 0.1 to 1 µM for the second. The second is the more potent here.

`C=CC(=O)N1CC[C@H](n2nc(C#Cc3cc4ncn(C5CC5)c4cc3F)c3c(N)nccc32)C1` [Example 149, 1-[(3S)-3-{4-Amino-3-[2-(1-cyclopropyl-6-fluoro-1,3-benzodiazol-5-yl)ethynyl]pyrazolo[4,3-c]pyridin-1-yl}pyrrolidin-1-yl]prop-2-en-1-one] and `C=CC(=O)N1CC[C@H](n2nc(C#Cc3cc4ncn(C)c4c(F)c3F)c3c(N)nccc32)C1` [Example 156, 1-[(3S)-3-{4-Amino-3-[2-(6,7-difluoro-1-methyl-1,3-benzodiazol-5-yl)ethynyl]pyrazolo[4,3-c]pyridin-1-yl}pyrrolidin-1-yl]prop-2-en-1-one] cannot be ordered by IC50: at most 0.1 µM for the first, at most 0.1 µM for the second.

`C=CC(=O)N1C[C@@H](n2nc(C#Cc3cc4ncn(C5CC5)c4cc3Cl)c3c(N)ncnc32)C[C@@H]1CC#N` [Example 187, 2-[(2R,4S)-4-{4-Amino-3-[2-(6-chloro-1-cyclopropyl-1,3-benzodiazol-5-yl)ethynyl]pyrazolo[3,4-d]pyrimidin-1-yl}-1-(prop-2-enoyl)pyrrolidin-2-yl]acetonitrile] and `C=CC(=O)N1C[C@@H](n2nc(C#Cc3cc4ncn(C5CC5)c4cc3Cl)c3c(N)nccc32)C[C@@H]1COC` [Example 138, 1-[(2R,4S)-4-{4-Amino-3-[2-(6-chloro-1-cyclopropyl-1,3-benzodiazol-5-yl)ethynyl]pyrazolo[4,3-c]pyridin-1-yl}-2-(methoxymethyl)pyrrolidin-1-yl]prop-2-en-1-one] cannot be ordered by IC50: at most 0.1 µM for the first, at most 0.1 µM for the second.

`[2H]C([2H])([2H])OC[C@H]1C[C@H](n2nc(C#Cc3cc4ncn(CC)c4cc3Cl)c3c(N)ncnc32)CN1C(=O)C=C` [Example 135, 1-[(2R,4S)-4-[4-Amino-3-[2-(6-chloro-1-ethyl-1,3-benzodiazol-5-yl)ethynyl]pyrazolo[3,4-d]pyrimidin-1-yl]-2-[(2H3)methoxymethyl]pyrrolidin-1-yl]prop-2-en-1-one] and `C=CC(=O)N1C[C@@H](n2nc(C#Cc3c(F)cc4c(ncn4CC)c3F)c3c(N)ncnc32)C[C@@H]1COC` [Example 85, 1-[(2R,4S)-4-[4-Amino-3-[2-(1-ethyl-4,6-difluoro-1,3-benzodiazol-5-yl)ethynyl]pyrazolo[3,4-d]pyrimidin-1-yl]-2-(methoxymethyl)pyrrolidin-1-yl]prop-2-en-1-one] cannot be ordered by IC50: at most 0.1 µM for the first, at most 0.1 µM for the second.

`C=CC(=O)N1C[C@@H](n2nc(C#Cc3cc4ncn(CC)c4cc3F)c3c(N)nccc32)C[C@@H]1C` [Example 166, 1-((2S,4S)-4-(4-amino-3-((1-ethyl-6-fluoro-1H-benzo[d]imidazol-5-yl)ethynyl)-1H-pyrazolo[4,3-c]pyridin-1-yl)-2-methylpyrrolidin-1-yl)prop-2-en-1-one] and `C=CC(=O)N1C[C@@H](n2nc(C#Cc3cc4ncn(CC)c4c(F)c3F)c3c(N)nccc32)C[C@@H]1CC#N` [Example 160, 2-[(2R,4S)-4-{4-Amino-3-[2-(1-ethyl-6,7-difluoro-1,3-benzodiazol-5-yl)ethynyl]pyrazolo[4,3-c]pyridin-1-yl}-1-(prop-2-enoyl)pyrrolidin-2-yl]acetonitrile] cannot be ordered by IC50: at most 0.1 µM for the first, at most 0.1 µM for the second.

`C=CC(=O)N1C[C@@H](n2cc(C#Cc3c(F)cc4c(ncn4C(F)F)c3F)c3c(N)ncnc32)C[C@@H]1COC` [Example 69, 1-[(2R,4S)-4-(4-Amino-5-[2-[1-(difluoromethyl)-4,6-difluoro-1,3-benzodiazol-5-yl]ethynyl]pyrrolo[2,3-d]pyrimidin-7-yl)-2-(methoxymethyl)pyrrolidin-1-yl]prop-2-en-1-one] and `C=CC(=O)N1C[C@@H](n2nc(C#Cc3c(Cl)cc4c(nc(C)n4C)c3F)c3c(N)ncnc32)C[C@@H]1COC` [Example 102, 1-((2R,4S)-4-(4-Amino-3-((6-chloro-4-fluoro-1,2-dimethyl-1H-benzo[d]imidazol-5-yl)ethynyl)-1H-pyrazolo[3,4-d]pyrimidin-1-yl)-2-(methoxymethyl)pyrrolidin-1-yl)prop-2-en-1-one] cannot be ordered by IC50: at most 0.1 µM for the first, at most 0.1 µM for the second.
